Results reported in patent publication US9120812B2, “Pyrimidooxazocine derivatives as mTOR-inhibitors” (SANOFI, priority 2012, dated 2015).

Assays:
[1] = biological target: mTOR (human recombinant aa mTOR 1360-2549) (Homo sapiens (Human), UniProt P42345); experiment: mTOR enzymatic test by TR-FRET (phosphorylation of GFP-4EBP1); assay type: biochemical
Procedure: Model 1: mTOR Enzymatic Test by TR-FRET (Time-resolved Fluorescence Resonance Energy Transfer).
The test detects the phosphorylation of the substrate GFP-4EBP1 using a terbium-labelled antibody that is specific for the phospho-Thr46 epitope. Binding of the Tb-antibody to the phosphorylated GFP peptide allows the transfer of energy from Tb, excited at 340 nm, to GFP with an increase in the fluorescence emission of the GFP at 520 nm. […] The mixture is incubated for 30 minutes at room temperature. 10 μl of solution are taken up and the reaction is quenched by adding 10 μl of Tb-antibody solution (Invitrogen PV4757)/EDTA (2 nM Tb-Ac and 10 mM EDTA final). After 60 minutes at room temperature, the fluorescence at 490 nm, from the Tb emission, and at 520 nm, from the GFP emission, is measured in a BMG PHERAstar reader equipped with a Lanthascreen™ filter (excitation at 340 nm, emission at 490 and 520 nm). The results are given in the form of the 520/490 ratio.

PI3Kα (p110α/p85α) = PI3Kα (p110α/p85α) (Homo sapiens (Human), UniProt P42336); experiment: PI3Kα enzymatic test by measuring the consumption of ATP; assay type: biochemical
Procedure: Model 2: PI3Kα Enzymatic Test by Measuring the Consumption of ATP.
The test uses a lucifeurerin/luciferase system to measure the concentration of ATP and its consumption during the enzymatic reaction. The test is performed in 96-well format (Corning/Costar 96 black flat-bottomed half-wells plate, ref. 3694) in a total volume of 30 μl.
To 1 μl of inhibitor in 100% DMSO are added (final concentrations) 50 μM of the substrate PIP2 ((L-α-phosphatidyl-D-myoinositol 4,5-bisphosphate, Echelon 117P-4516-0500), 2 μM of ATP and 1.7 μg/ml of PI3Kα, (p110α/p85α, Invitrogen PV4788) in a buffer of Tris/HCl 50 mM pH 7.5, EGTA 1 mM, MgCl2 10 mM, Chaps 0.03%, 1 mM DTT). After 90 minutes, the reaction is quenched by adding 20 μl/well of KinaseGlo reagent (Promega V6713). After 10 minutes in the dark, the luminescence is read on the PHERAStar microplate reader (reading at 0.8 sec/well).
The IC50 values are determined by the preparation of successive threefold dilutions on at least a scale of 10 000.

U87MG tumour cells = experiment: Test of in vitro proliferation of U87MG tumour cells; assay type: cell-based; conditions: Homo sapiens, U-87 MG, 72 h, U87MG cells, 72 hours; read-out: U87 Cell Proliferation IC50
Procedure: Model 4: Test of in vitro Proliferation of U87MG Tumour Cells.
The cell growth is determined with the reagent CellTiter 96 AQueous One Solution Cell Proliferation Assay from Promega (Cat. No. G3581).

Sequence of mTOR (human recombinant aa mTOR 1360-2549) (P42345 1360-2549): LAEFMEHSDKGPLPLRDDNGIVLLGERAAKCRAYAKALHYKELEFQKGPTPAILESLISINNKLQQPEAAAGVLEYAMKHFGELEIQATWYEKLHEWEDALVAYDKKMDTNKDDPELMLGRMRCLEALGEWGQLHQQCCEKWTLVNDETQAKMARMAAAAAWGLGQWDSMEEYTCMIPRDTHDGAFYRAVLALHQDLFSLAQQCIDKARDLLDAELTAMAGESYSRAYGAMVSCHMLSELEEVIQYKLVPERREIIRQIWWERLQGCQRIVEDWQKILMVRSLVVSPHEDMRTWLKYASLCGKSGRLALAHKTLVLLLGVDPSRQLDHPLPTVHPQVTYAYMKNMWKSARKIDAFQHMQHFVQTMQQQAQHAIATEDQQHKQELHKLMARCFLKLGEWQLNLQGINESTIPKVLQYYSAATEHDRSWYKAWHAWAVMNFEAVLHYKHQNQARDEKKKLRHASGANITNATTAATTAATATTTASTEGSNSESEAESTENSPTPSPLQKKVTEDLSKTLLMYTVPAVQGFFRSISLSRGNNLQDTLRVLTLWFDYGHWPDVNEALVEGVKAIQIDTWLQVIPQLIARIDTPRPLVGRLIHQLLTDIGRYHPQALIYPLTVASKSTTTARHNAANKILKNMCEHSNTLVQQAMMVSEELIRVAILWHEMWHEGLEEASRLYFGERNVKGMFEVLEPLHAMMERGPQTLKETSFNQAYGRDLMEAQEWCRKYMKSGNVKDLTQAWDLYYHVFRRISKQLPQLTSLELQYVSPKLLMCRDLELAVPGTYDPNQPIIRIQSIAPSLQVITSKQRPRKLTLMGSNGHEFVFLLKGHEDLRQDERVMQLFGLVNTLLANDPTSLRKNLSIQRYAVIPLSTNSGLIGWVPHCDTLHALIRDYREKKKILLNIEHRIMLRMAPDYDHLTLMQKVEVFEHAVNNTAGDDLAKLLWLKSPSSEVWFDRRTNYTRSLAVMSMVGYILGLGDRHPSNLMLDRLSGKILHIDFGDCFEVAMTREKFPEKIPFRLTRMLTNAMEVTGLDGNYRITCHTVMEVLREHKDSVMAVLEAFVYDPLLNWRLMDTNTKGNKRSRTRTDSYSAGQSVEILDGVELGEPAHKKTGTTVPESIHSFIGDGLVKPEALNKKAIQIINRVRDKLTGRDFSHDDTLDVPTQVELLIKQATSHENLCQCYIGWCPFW
Sequence of PI3Kα (p110α/p85α) (P42336 whole entry): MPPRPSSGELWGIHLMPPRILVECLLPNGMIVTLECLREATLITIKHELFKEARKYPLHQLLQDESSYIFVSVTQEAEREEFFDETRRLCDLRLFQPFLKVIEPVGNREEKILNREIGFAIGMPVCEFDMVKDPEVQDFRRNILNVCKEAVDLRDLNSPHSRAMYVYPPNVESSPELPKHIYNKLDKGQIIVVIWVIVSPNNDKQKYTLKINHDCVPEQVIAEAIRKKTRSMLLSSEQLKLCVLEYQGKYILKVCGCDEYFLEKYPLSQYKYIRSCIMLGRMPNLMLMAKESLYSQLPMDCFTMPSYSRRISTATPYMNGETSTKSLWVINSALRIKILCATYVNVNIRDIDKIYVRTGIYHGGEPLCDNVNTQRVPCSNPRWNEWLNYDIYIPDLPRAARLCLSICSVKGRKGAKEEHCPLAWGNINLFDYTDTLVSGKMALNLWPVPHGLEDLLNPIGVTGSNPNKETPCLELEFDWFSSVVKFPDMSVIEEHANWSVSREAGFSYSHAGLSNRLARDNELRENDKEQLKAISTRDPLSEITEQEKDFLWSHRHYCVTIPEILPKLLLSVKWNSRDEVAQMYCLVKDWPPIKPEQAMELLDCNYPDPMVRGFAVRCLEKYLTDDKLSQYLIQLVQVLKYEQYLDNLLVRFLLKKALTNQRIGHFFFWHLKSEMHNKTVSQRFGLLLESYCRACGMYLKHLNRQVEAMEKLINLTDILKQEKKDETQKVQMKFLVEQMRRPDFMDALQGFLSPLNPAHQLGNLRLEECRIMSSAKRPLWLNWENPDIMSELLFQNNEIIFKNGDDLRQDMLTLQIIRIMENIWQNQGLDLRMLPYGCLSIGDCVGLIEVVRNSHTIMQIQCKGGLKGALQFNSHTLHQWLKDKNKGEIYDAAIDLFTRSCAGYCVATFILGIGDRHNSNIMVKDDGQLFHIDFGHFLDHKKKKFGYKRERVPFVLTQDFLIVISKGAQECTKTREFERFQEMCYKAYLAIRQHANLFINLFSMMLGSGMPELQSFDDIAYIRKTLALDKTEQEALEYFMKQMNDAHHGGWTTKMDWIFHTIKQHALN
Sequence of PI3Kα (p110α/p85α) (P27986 whole entry partner): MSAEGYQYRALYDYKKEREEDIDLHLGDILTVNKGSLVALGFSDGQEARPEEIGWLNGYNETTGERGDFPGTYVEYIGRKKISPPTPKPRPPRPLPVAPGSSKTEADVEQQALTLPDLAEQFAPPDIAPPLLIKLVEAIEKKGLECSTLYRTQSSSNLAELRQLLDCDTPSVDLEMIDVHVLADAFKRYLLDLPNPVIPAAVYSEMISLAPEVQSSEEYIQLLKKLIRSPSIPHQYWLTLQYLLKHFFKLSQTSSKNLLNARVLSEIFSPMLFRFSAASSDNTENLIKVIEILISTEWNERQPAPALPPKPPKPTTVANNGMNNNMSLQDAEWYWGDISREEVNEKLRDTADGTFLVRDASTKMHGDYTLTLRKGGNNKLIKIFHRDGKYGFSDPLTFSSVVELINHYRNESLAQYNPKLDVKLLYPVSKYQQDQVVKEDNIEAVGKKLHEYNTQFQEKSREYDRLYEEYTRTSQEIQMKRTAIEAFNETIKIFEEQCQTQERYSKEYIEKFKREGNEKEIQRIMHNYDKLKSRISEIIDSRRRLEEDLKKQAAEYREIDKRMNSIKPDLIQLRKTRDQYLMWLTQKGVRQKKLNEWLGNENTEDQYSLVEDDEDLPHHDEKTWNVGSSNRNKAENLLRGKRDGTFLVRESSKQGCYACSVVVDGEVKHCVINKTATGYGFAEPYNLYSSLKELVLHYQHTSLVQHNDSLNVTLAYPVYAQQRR

`CCNC(=O)Nc1ccc(-c2nc(N3CC4CCC(C3)O4)nc3c2C(=O)N(C[C@@H]2CCCN2C(=O)OCC)CC(C)(C)O3)cc1F` [Example 5, (S)-2-[4-[4-(3-ethylureido)-3-fluorophenyl]-8,8-dimethyl-2-(8-oxa-3-azabicyclo[3.2.1]oct-3-yl)-5-oxo-7,8-dihydro-5H-9-oxa-1,3,6-triazabenzocyclohepten-6-ylmethyl]pyrrolidine-1-carboxylic acid ethyl ester] was tested, and the IC50 [1] was 0.905 µM, the “PI3Ka IC50” value (PI3Kα (p110α/p85α)) was >10 µM and the IC50 (U87MG tumour cells) was > 10 µM.

With `CCNC(=O)Nc1ccc(-c2nc(N3CC4CCC(C3)O4)nc3c2C(=O)N(C[C@@H]2CCCN2C(C)=O)CC(C)(C)O3)cc1F` [Example 6, 1-{4-[6-((S)-1-acetylpyrrolidin-2-ylmethyl)-8,8-dimethyl-2-(8-oxa-3-azabicyclo[3.2.1]oct-3-yl)-5-oxo-5,6,7,8-tetrahydro-9-oxa-1,3,6-triazabenzocyclohepten-4-yl]-2-fluorophenyl}-3-ethylurea] the IC50 [1] was 1.07 µM, the “PI3Ka IC50” value (PI3Kα (p110α/p85α)) was >10 µM and the IC50 (U87MG tumour cells) was 7.15 µM.

With `CCNC(=O)Nc1ccc(-c2nc(N3CC4CCC(C3)O4)nc3c2C(=O)N(CCCO)CC(C)(C)O3)cc1` [Example 9, 1-ethyl-3-{4-[6-(3-hydroxypropyl)-8,8-dimethyl-2-(8-oxa-3-azabicyclo[3.2.1]oct-3-yl)-5-oxo-5,6,7,8-tetrahydro-9-oxa-1,3,6-triazabenzocyclohepten-4-yl]phenyl}urea] the IC50 [1] was 0.065 µM, the “PI3Ka IC50” value (PI3Kα (p110α/p85α)) was >10 µM and the IC50 (U87MG tumour cells) was 2.5 µM.

For `CCNC(=O)Nc1ccc(-c2nc(N3CC4CCC(C3)O4)nc3c2C(=O)N(CC)CC(C)(C)O3)cn1` [Example 17, 1-ethyl-3-{5-[6-ethyl-8,8-dimethyl-2-(8-oxa-3-azabicyclo[3.2.1]oct-3-yl)-5-oxo-5,6,7,8-tetrahydro-9-oxa-1,3,6-triazabenzocyclohepten-4-yl]pyridin-2-yl}urea], the IC50 [1] was 2.49 µM, the “PI3Ka IC50” value (PI3Kα (p110α/p85α)) was >10 µM and the IC50 (U87MG tumour cells) was > 10 µM.

With `CC1(C)CNC(=O)c2c(nc(N3CCOCC3)nc2-c2ccc(N)nc2)O1` [Example 95, 4-(6-Aminopyridin-3-yl)-8,8-dimethyl-2-morpholin-4-yl-7,8-dihydro-6H-9-oxa-1,3,6-triazabenzocyclohepten-5-one] the IC50 [1] was 0.624 µM and the “PI3Ka IC50” value (PI3Kα (p110α/p85α)) was >10 µM.

For `CCNC(=O)Nc1ccc(-c2nc(N3CCOCC3)nc3c2C(=O)N(CC)CCO3)cc1` [Example 97, 1-Ethyl-3-[4-(6-ethyl-2-morpholin-4-yl-5-oxo-5,6,7,8-tetrahydro-9-oxa-1,3,6-triazabenzocyclohepten-4-yl)phenyl]urea], the IC50 [1] was 0.8 µM, the “PI3Ka IC50” value (PI3Kα (p110α/p85α)) was 2.159 µM and the IC50 (U87MG tumour cells) was > 10 µM.

With `CCN1CC(C)(C)Oc2nc(N3CCOCC3)nc(-c3ccc(OC)c(CO)c3)c2C1=O` [Example 100, 6-Ethyl-4-(3-hydroxymethyl-4-methoxyphenyl)-8,8-dimethyl-2-morpholin-4-yl-7,8-dihydro-6H-9-oxa-1,3,6-triazabenzocyclohepten-5-one] the IC50 [1] was 7.29 µM, the “PI3Ka IC50” value (PI3Kα (p110α/p85α)) was 7.44 µM and the IC50 (U87MG tumour cells) was > 10 µM.

With `CCN1CC(C)(C)Oc2nc(N3CC4CCC(C3)O4)nc(-c3ccc(OC)c(CO)c3)c2C1=O` [Example 101, 6-Ethyl-4-(3-hydroxymethyl-4-methoxyphenyl)-8,8-dimethyl-2-(8-oxa-3-azabicyclo[3.2.1]oct-3-yl)-7,8-dihydro-6H-9-oxa-1,3,6-triazabenzocyclohepten-5-one] the IC50 [1] was 4.04 µM and the IC50 (U87MG tumour cells) was > 10 µM.

In the case of `CCN1CC(C)(C)Oc2nc(N3CCOCC3)nc(-c3ccc(N)cc3)c2C1=O` [Example 102, 4-(4-Aminophenyl)-6-ethyl-8,8-dimethyl-2-morpholin-4-yl-7,8-dihydro-6H-9-oxa-1,3,6-triazabenzocyclohepten-5-one], the IC50 [1] is reported as 0.927 µM, the “PI3Ka IC50” value (PI3Kα (p110α/p85α)) is reported as 3.61 µM and the IC50 (U87MG tumour cells) is reported as 9.83 µM.

`CCN1CC(C)(C)Oc2nc(N3CCOCC3)nc(-c3ccc(NC(=O)NOC)cc3)c2C1=O` [Example 104, 1-Methoxy-3-[4-(6-ethyl-8,8-dimethyl-2-morpholin-4-yl-5-oxo-5,6,7,8-tetrahydro-9-oxa-1,3,6-triazabenzocyclohepten-4-yl)phenyl]urea] was tested, and the IC50 [1] was 1.49 µM, the “PI3Ka IC50” value (PI3Kα (p110α/p85α)) was 3.75 µM and the IC50 (U87MG tumour cells) was > 10 µM.

With `CCN1CC(C)(C)Oc2nc(N3CC4CCC(C3)O4)nc(-c3ccc(N)nc3)c2C1=O` [Example 107, 4-(6-Aminopyridin-3-yl)-6-ethyl-8,8-dimethyl-2-(8-oxa-3-azabicyclo[3.2.1]oct-3-yl)-7,8-dihydro-6H-9-oxa-1,3,6-triazabenzocyclohepten-5-one] the IC50 [1] was 2.65 µM, the “PI3Ka IC50” value (PI3Kα (p110α/p85α)) was 9.38 µM and the IC50 (U87MG tumour cells) was > 10 µM.

With `CCC(=O)Nc1ccc(-c2nc(N3CC4CCC(C3)O4)nc3c2C(=O)N(CC)CC(C)(C)O3)cc1` [Example 108, N-{4-[6-Ethyl-8,8-dimethyl-2-(8-oxa-3-azabicyclo[3.2.1]oct-3-yl)-5-oxo-5,6,7,8-tetrahydro-9-oxa-1,3,6-triazabenzocyclohepten-4-yl]phenyl}propionamide] the IC50 [1] was 0.472 µM, the “PI3Ka IC50” value (PI3Kα (p110α/p85α)) was >10 µM and the IC50 (U87MG tumour cells) was 4.45 µM.

`CCNC(=O)Nc1ccc(-c2nc(N3C[C@@H](C)O[C@@H](C)C3)nc3c2C(=O)N(CC)CC(C)(C)CO3)cc1` [Example 109, 1-{4-[2-((2S,6R)-2,6-Dimethylmorpholin-4-yl)-6-ethyl-8,8-dimethyl-5-oxo-6,7,8,9-tetrahydro-5H-10-oxa-1,3,6-triazabenzocycloocten-4-yl]phenyl}-3-ethylurea] was tested, and the IC50 [1] was 7.77 µM and the “PI3Ka IC50” value (PI3Kα (p110α/p85α)) was 2.046 µM.

In the case of `CCN1CC(C)(C)Oc2nc(N3CC4CCC(C3)O4)nc(-c3ccc(NS(=O)(=O)CC)cc3)c2C1=O` [Example 111, Ethanesulfonic acid {4-[6-ethyl-8,8-dimethyl-2-(8-oxa-3-azabicyclo[3.2.1]oct-3-yl)-5-oxo-5,6,7,8-tetrahydro-9-oxa-1,3,6-triazabenzocyclohepten-4-yl]phenyl}amide], the IC50 [1] is reported as 6.35 µM and the “PI3Ka IC50” value (PI3Kα (p110α/p85α)) is reported as >10 µM.

With `CCNC(=O)Nc1ccc(-c2nc(N3CC4CCC(C3)O4)nc3c2CN(CC)CC(C)(C)O3)cc1` [Example 113, 1-Ethyl-3-{4-[6-ethyl-8,8-dimethyl-2-(8-oxa-3-azabicyclo[3.2.1]oct-3-yl)-5,6,7,8-tetrahydro-9-oxa-1,3,6-triazabenzocyclohepten-4-yl]phenyl}urea] the IC50 [1] was 3.96 µM, the “PI3Ka IC50” value (PI3Kα (p110α/p85α)) was >10 µM and the IC50 (U87MG tumour cells) was > 10 µM.

In the case of `CCNC(=O)Nc1ccc(-c2nc(N3C[C@@H](C)O[C@@H](C)C3)nc3c2C(=O)N(CC)CC(C)(C)O3)cc1` [Example 114, 1-{4-[2-((2S,6R)-2,6-Dimethylmorpholin-4-yl)-6-ethyl-8,8-dimethyl-5-oxo-5,6,7,8-tetrahydro-9-oxa-1,3,6-triazabenzocyclohepten-4-yl]phenyl}-3-ethylurea], the IC50 [1] is reported as 1.22 µM, the “PI3Ka IC50” value (PI3Kα (p110α/p85α)) is reported as >10 µM and the IC50 (U87MG tumour cells) is reported as > 10 µM.

For `CCN1CC(C)(C)Oc2nc(N3CC4CCC(C3)O4)nc(-c3ccc(NC(=O)Nc4ccnn4C)cc3)c2C1=O` [Example 115, 1-{4-[6-Ethyl-8,8-dimethyl-2-(8-oxa-3-azabicyclo[3.2.1]oct-3-yl)-5-oxo-5,6,7,8-tetrahydro-9-oxa-1,3,6-triazabenzocyclohepten-4-yl]phenyl}-3-(2-methyl-2H-pyrazol-3-yl)urea], the IC50 [1] was 0.147 µM, the “PI3Ka IC50” value (PI3Kα (p110α/p85α)) was >10 µM and the IC50 (U87MG tumour cells) was 5 µM.

With `CCN1CC(C)(C)Oc2nc(N3CC4CCC(C3)O4)nc(-c3ccc(NC(=O)NC(C)(C)CO)c(F)c3)c2C1=O` [Example 224, 1-{4-[6-Ethyl-8,8-dimethyl-2-(8-oxa-3-azabicyclo[3.2.1]oct-3-yl)-5-oxo-5,6,7,8-tetrahydro-9-oxa-1,3,6-triazabenzocyclohepten-4-yl]-2-fluorophenyl}-3-(2-hydroxy-1,1-dimethylethyl)urea] the IC50 [1] was 1.12 µM and the “PI3Ka IC50” value (PI3Kα (p110α/p85α)) was >10 µM.

With `COCCN1CC(C)(C)Oc2nc(N3CCOC[C@@H]3C)nc(-c3ccc(NC(=O)NCC(C)(C)O)c(F)c3)c2C1=O` [Example 226, 1-{2-Fluoro-4-[6-(2-methoxyethyl)-8,8-dimethyl-2-((S)-3-methylmorpholin-4-yl)-5-oxo-5,6,7,8-tetrahydro-9-oxa-1,3,6-triazabenzocyclohepten-4-yl]phenyl}-3-(2-hydroxy-2-methylpropyl)urea] the IC50 [1] was 1.28 µM and the “PI3Ka IC50” value (PI3Kα (p110α/p85α)) was >10 µM.
